Laboratory results from patent US11155523B2, “Biphenyl compound as CCR2/CCR5 receptor antagonist” (Medshine Discovery Inc., priority 2016, dated 2021).

Tests used:
[1] = Comparative pharmacokinetics study in rats; type: in vivo, SD male rats; settings: rat; for clearance / half-life / bioavailability: male, Sprague-Dawley (SD), plasma; for clearance / half-life / Area Under a Curve (0-inf): intravenous injection 2 mg/kg; for bioavailability: oral 10 mg/kg vs intravenous 2 mg/kg; for Area Under a Curve (0-inf/0-last) / Peak time: oral 10 mg/kg; for Oral plasma system exposure (AUC0-inf) as multiple of the reference compound / Plasma clearance as percent of that of the reference compound: relative to Cenicriviroc
Procedure: Experimental Example 2: Comparative Pharmacokinetics Study in Rats
(§1) SD male rats were used as the test animals in this study. The drug concentrations in plasma of the rats by intravenous or oral administration of test compounds WX017, WX047, WX079, WX088 and reference compound at different time points were quantitatively determined by LC/MS/MS, which were used to evaluate the pharmacokinetic profile of the two test drugs in rats.
A clear solution of the test compound was injected into SD rats via the tail vein (overnight fasting, 7-10 weeks old), and the test compound was orally administered to the SD rats (overnight fasting, 7-10 weeks old). Approximately 200 μL of blood was collected from the jugular vein or tail vein of the animals 0.0833, 0.25, 0.5, 1, 2, 4, 6, 8 and 24 hours after administration, and was placed in an anticoagulant tube containing EDTA-K2. The plasma was collected by centrifugation at 3000 g for 15 minutes at 4° C. The plasma concentration was determined by LC-MS/MS. The pharmacokinetic parameters were calculated by the non-compartment model linear logarithmic trapezoidal method using WinNonlin™ Version 6.3 (Pharsight, Mountain View, Calif.) pharmacokinetic software.

[2] = Comparative pharmacokinetics study in cynomolgus monkeys; type: in vivo; settings: cynomolgus monkey
Excerpt: Experimental Example 3: Comparative Pharmacokinetics Study in Cynomolgus Monkeys
as §1, with “Male cynomolgus monkeys” for “SD male rats”, “cynomolgus monkeys” for “rats”, “compound WX047” for “compounds WX017, WX047, WX079, WX088”, “cynomolgus monkeys.” for “rats.”
A clear solution of the test compound was injected into cynomolgus monkeys via t the cephalic or saphenous vein (overnight fasting, 2.5-7 kg), and the test compound was intragastrically administered to the cynomolgus monkeys (overnight fasting, 7-10 weeks old). Approximately 400 μL of blood was collected from the peripheral vein of the animals 0.0833, 0.25, 0.5, 1, 2, 4, 6, 8, 12 and 24 hours after administration, and transferred into an commercial centrifuge tube containing EDTA-K2*2H2O anticoagulation. The plasma was collected by centrifugation at 3000 g for 10 minutes at 4° C. The plasma concentration was determined by LC-MS/MS. The pharmacokinetic parameters were calculated by the non-compartment model linear logarithmic trapezoidal method using WinNonlin™ Version 6.3 (Pharsight, Mountain View, Calif.) pharmacokinetic software.

CYP1A2 = molecular target: T1, CYP1A2 (Homo sapiens, UniProt P05177); experiment: Inhibition of human liver microsomal CYP1A2 (phenacetin probe); type: in vitro ADME; settings: human liver microsomes
T1 construct: from tissue; host or cells: human liver microsomes
T1 sequence (P05177 1-516): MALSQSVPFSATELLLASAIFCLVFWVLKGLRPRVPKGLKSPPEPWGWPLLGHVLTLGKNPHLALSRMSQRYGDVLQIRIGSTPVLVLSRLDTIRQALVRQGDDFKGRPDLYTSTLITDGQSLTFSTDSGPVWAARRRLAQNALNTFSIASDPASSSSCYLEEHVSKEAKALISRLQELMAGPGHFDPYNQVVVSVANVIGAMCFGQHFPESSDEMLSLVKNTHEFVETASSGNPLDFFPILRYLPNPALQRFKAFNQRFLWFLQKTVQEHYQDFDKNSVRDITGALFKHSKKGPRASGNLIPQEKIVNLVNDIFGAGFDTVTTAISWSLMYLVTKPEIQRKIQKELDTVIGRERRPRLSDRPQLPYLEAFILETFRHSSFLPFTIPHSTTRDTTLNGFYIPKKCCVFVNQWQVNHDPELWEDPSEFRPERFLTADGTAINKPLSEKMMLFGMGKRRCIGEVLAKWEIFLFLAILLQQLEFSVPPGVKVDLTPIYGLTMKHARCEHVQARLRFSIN
Procedure: (§2) Experimental Example 4 Inhibition Effect on the Activity of Human Liver Microsomal Cytochrome P450 Isoezymes (CYP1A2, CYP2C9, CYP2C19, CYP2D6 and CYP3A4)
(§3) A total of 5 specific probe substrates for CYP's five isozymes, Phenacetin (CYP1A2), Diclofenac (CYP2C9), […] (S)-Mephenytoin, CYP2C19), Dextromethorphan (CYP2D6) and Midazolam (CYP3A4) were incubated with human liver microsomes and test compounds, respectively, and reduced nicotinamide adenine dinucleotide phosphate (NADPH) was added to initiate the reaction. After the reaction, the sample was processed and liquid chromatography tandem mass spectrometry (LC-MS/MS) was used to quantitatively detect the […] metabolites produced by the specific substrate, Acetaminophen and 4′-hydroxydiclofenac, 4′-hydroxymephenytoin, Dextrorphan and 1′-hydroxymidazolam, in order to calculate the corresponding half maximal inhibitory concentration (IC50).

CYP2C9 = molecular target: T2, CYP2C9 (Homo sapiens, UniProt P11712); experiment: Inhibition of human liver microsomal CYP2C9 (diclofenac probe); type: in vitro ADME; settings: human liver microsomes
T2 construct: from tissue; host or cells: human liver microsomes
T2 sequence (P11712 whole entry): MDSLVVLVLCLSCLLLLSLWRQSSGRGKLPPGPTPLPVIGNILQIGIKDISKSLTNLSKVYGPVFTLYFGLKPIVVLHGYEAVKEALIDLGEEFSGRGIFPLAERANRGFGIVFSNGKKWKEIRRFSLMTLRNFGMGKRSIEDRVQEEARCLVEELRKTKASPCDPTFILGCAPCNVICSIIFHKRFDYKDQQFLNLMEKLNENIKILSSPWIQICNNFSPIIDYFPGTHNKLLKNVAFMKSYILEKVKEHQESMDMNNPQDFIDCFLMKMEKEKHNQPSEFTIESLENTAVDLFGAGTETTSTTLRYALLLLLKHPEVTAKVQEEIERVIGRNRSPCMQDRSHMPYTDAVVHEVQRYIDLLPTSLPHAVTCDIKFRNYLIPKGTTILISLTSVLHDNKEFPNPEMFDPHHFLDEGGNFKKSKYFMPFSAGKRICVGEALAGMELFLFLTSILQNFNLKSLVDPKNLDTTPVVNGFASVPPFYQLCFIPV
Procedure: as §2, §3

CYP2C19 = molecular target: T3, CYP2C19 (Homo sapiens, UniProt P33261); experiment: Inhibition of human liver microsomal CYP2C19 ((S)-mephenytoin probe); type: in vitro ADME; settings: human liver microsomes
T3 construct: from tissue; host or cells: human liver microsomes
T3 sequence (P33261 whole entry): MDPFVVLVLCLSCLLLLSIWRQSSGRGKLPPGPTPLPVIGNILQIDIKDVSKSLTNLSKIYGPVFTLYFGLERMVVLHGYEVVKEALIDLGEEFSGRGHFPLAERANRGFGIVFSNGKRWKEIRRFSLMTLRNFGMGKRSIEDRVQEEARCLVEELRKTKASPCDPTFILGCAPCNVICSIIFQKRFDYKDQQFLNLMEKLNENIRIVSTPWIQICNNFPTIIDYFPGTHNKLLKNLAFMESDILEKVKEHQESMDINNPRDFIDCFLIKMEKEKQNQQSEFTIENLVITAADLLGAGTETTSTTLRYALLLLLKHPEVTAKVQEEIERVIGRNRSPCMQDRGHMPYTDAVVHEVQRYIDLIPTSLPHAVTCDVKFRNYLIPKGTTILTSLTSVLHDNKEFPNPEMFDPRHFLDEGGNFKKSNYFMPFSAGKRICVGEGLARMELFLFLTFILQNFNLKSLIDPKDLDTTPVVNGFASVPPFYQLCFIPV
Procedure: as §2, §3

CYP2D6 = molecular target: T4, CYP2D6 (Homo sapiens, UniProt P10635); experiment: Inhibition of human liver microsomal CYP2D6 (dextromethorphan probe); type: in vitro ADME; settings: human liver microsomes
T4 construct: from tissue; host or cells: human liver microsomes
T4 sequence (P10635 whole entry): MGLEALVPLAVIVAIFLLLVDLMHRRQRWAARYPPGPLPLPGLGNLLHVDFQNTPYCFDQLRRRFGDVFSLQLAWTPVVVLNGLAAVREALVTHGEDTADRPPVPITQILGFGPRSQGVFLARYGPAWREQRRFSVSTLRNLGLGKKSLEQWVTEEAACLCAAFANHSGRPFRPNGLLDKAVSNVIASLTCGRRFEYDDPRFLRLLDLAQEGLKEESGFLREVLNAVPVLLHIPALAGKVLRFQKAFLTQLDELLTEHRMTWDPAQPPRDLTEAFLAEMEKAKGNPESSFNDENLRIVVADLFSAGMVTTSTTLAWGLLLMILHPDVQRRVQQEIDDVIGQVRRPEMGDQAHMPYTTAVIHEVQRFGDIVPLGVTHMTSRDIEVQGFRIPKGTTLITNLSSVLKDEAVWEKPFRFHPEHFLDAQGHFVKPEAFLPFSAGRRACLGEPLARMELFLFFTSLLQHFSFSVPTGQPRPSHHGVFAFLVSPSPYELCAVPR
Procedure: as §2, §3

CYP3A4 = molecular target: T5, CYP3A4 (Homo sapiens, UniProt P08684); experiment: Inhibition of human liver microsomal CYP3A4 (midazolam probe); type: in vitro ADME; settings: human liver microsomes; for IC50: probe midazolam
T5 construct: from tissue; host or cells: human liver microsomes
T5 sequence (P08684 whole entry): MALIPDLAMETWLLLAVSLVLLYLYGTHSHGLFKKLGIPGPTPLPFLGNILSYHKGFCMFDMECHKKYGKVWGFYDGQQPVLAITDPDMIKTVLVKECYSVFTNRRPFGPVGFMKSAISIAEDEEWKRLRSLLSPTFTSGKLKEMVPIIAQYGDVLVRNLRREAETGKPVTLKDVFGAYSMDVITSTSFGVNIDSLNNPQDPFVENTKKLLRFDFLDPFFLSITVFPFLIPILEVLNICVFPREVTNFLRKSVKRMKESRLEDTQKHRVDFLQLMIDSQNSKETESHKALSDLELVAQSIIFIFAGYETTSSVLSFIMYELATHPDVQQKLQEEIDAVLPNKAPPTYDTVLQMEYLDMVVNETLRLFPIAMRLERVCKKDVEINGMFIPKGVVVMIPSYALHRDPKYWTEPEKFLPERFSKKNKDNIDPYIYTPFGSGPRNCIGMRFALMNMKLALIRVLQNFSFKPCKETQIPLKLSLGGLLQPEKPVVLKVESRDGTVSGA
Procedure: as §2, §3

CCR2 = molecular target: T6, CCR2 (Homo sapiens, UniProt P41597); experiment: CCR2 in vitro test: intracellular calcium signal detected by FLIPR; type: cell-based; settings: HEK293 cells expressing CCR2, agonist MCP-1 at EC80, calcium signal
T6 construct: expressed in transfected cells; host or cells: HEK293, clone C7, passage P6
T6 sequence (P41597 whole entry, species assumed): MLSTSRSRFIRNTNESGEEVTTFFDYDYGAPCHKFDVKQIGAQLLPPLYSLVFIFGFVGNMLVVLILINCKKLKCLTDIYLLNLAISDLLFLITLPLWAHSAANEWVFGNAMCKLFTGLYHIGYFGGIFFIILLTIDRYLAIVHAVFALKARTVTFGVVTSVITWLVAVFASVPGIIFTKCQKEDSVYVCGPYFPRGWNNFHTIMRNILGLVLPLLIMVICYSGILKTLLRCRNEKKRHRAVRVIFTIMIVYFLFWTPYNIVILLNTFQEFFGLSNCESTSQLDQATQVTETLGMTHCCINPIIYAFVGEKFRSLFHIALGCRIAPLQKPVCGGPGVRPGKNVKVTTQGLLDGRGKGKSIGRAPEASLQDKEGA
Procedure: (§4) Experimental Example 1: CCR2/CCR5 In Vitro Test
(§5) The intracellular calcium signal was detected by FLIPR, and the IC50 value of the compound was used as an index to evaluate the inhibitory effect of the compound on CCR2 and CCR5 receptors.
(§6) 1. Cell line: The cells were inoculated and incubated in a 5% CO2 incubator at 37° C. overnight.
(§7) CCR2/CCR5 density: 1 M (20 k/well)
(§8) 2. Reagents: Fluo-4 Direct, (Invitrogen, Cat #F10471)
(§9) The compound was dissolved in DMSO to prepare a 10 mM solution, and the compound solution was placed in a nitrogen box.
(§10) Agonist reference compounds:
(§11) Preparation of probenecid in FLIPR assay buffer: 1 mL of FLIPR assay buffer was added to […] of probenecid to prepare a 250 mM solution, which is prepared fresh daily.
(§12) 2× (8 μM) Fluo-4 Direct™ Loading Buffer (per 10 mL) • Thaw a bottle of Fluo-4 Direct™ crystal (F10471). • Add 10 mL of FLIPR assay buffer to the vial. • Add 0.2 mL of probenecid to each 10 mL of Fluo-Direct. The final concentration of the assay was 2.5 mM. • Rotate it and place for >5 minutes (in absence of light). • Prepare fresh daily.
(§13) MCP-1 was diluted in FLIPR assay buffer 1:2 into 10 points, starting at 0.5 uM (final 100 nM). RANTES was diluted in FLIPR assay buffer 1:3 into 10 points, starting at 0.5 uM (final 100 nM). 20 uL of serially diluted compound buffer was added to each well of the DRC plate according to the compound plate map.
(§14) Standard compound was diluted in DMSO 1:3 into 11 points, starting at 1 mM. Test compound was diluted in DMSO 1:3 into 11 points, starting at 2 mM. 250 nL of compound solution was transferred into a cell plate using Echo (Greiner #781946).
(§15) (c) Take the cell plate out of the incubator, and gently dispense 20 uL of 2× Fluo-4 Direct wash-free loading buffer into a 384-well cell culture plate using a pipette. The final cell plate is 40 μL in volume.
(§16) (d) Incubate for 50 minutes at 37° C. under 5% CO2, and for 10 minutes at room temperature.
(§17) (e) Take the cell plate out of the incubator, and place it in FLIPR. Place the composite plate and the tip box in FLIPR.
(§18) (f) For DRC plate: • 1) Run the program on FLIPRTETRA. • 2) Read the fluorescent signal. • 3) Transfer 10 μL of compound from the DRC plate to the cell plate. • 4) Read the fluorescent signal. • 5) Calculate the “maximum−minimum” from Read 90 to the maximum allowed. Use FLIPR to calculate the EC80 value of each cell line. • 6) Prepare 5×EC80 concentration of the agonist reference compound.
(§19) (g) For the composite plate (1-add): • 1) Run the program on FLIPRTETRA. • 2) Transfer 10 μl, of 5×EC80 concentration of the agonist reference compound from the composite plate to the cell plate. • 3) Read the fluorescent signal. • 4) Calculate the “maximum−minimum” from Read 90 to the maximum allowed.
(§20) (h) Analyze the data using Prism, and calculate the IC50 value of the compound.

CCR5 = molecular target: T7, CCR5 (Homo sapiens, UniProt P51681); experiment: CCR5 in vitro test: intracellular calcium signal detected by FLIPR; type: cell-based; settings: HEK293 cells expressing CCR5, agonist RANTES at EC80, calcium signal
T7 construct: expressed in transfected cells; host or cells: HEK293, clone C13, passage P4
T7 sequence (P51681 whole entry, species assumed): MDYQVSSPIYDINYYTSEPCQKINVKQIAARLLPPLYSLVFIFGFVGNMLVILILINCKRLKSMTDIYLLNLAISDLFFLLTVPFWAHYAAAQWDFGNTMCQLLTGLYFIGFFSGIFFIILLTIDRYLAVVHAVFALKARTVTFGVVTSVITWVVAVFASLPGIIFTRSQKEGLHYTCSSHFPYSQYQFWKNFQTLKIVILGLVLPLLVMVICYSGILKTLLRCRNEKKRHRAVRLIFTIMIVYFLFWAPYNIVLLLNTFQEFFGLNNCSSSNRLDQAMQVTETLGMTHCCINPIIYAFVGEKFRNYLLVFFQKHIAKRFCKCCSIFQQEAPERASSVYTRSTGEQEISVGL
Procedure: as §4, §5, §6, §7, §8, §9, §10, §11, §12, §13, §14, §15, §16, §17, §18, §19, §20

[3] = tested on: human liver microsomal cytochrome P450 isoenzymes; experiment: Inhibition of human liver microsomal cytochrome P450 isoenzymes, overall conclusion; type: in vitro ADME; settings: human liver microsomes
Procedure: as §2, §3

[4] = male, plasma, intravenous injection 1 mg/kg

| SMILES | clearance [1] [mL/min/kg] | half-life [1] [h] | bioavailability [1] [%] | Area Under a Curve (0-inf) [1] [µM·h] | Area Under a Curve (0-inf/0-last) [1] [µM·h] | Peak time [1] [h] | IC50 (CYP1A2) [nM] | IC50 (CYP2C9) [nM] | IC50 (CYP2C19) [nM] | IC50 (CYP2D6) [nM] | IC50 (CYP3A4) [nM] | IC50 (CCR2) [nM] | IC50 (CCR5) [nM] | Oral plasma system exposure (AUC0-inf) as multiple of the reference compound [1] [times] | Plasma clearance as percent of that of the reference compound [1] [%] | other results |
| --- | --- | --- | --- | --- | --- | --- | --- | --- | --- | --- | --- | --- | --- | --- | --- | --- |
| CCCCOCCOc1ccc(-c2ccc3c(c2)/C=C(/C(=O)Nc2ccc([S@@+]([O-])Cc4cncn4CCC)cc2)CCCN3CC(C)C)cc1 [(Cenicriviroc), Cenicriviroc, reference compound] | 1.57 | 5.48 | 20.4 | 31.344 | 31.956 | 4.0 | > 50000 | > 50000 | > 50000 | > 50000 | 5600 |  |  |  |  | Area Under a Curve (0-inf) ([2]; intravenous injection 1 mg/kg): 2.766 µM·h; Area Under a Curve (0-inf/0-last) ([2]; oral 3 mg/kg): 0.424 µM·h; Peak time ([2]; oral 3 mg/kg): 2.0 h; clearance [2, 4]: 8.74 mL/min/kg; half-life [2, 4]: 5.37 h; bioavailability ([2]; male, plasma, oral 3 mg/kg vs intravenous 1 mg/kg): 5.11%; Inhibitory effect on CYP3A4 (conclusion in words) (CYP3A4): weak inhibitory effect |
| CCCCOCCOc1ccc(-c2ccc(OC)c(/C=C/C(=O)Nc3ccc([S@@+]([O-])Cc4cncn4CCC)cc3)c2)cc1 [WX017] | 0.4 | 3.69 | 48.9 | 135.732 | 331.778 | 1.5 |  |  |  |  |  | 13 | 7.9 | 10.4 | 25 |  |
| CCCCOCCOc1ccc(-c2ccc(OC)c(/C=C/C(=O)Nc3ccc([S@+]([O-])Cc4c(C)ncn4CC)cc3)c2)cc1 [WX079] | 0.224 | 9.47 | 32.6 | 255.072 | 404.142 | 3.0 | > 50000 | > 50000 | > 50000 | > 50000 | 28300 | 5.6 | 5.8 | 12.6 | 14 | Risk of inhibiting isoenzymes of human liver microsomal cytochrome P450 (conclusion in words) [3]: no risk on inhibiting five isoenzymes |
| CCCCOCCOc1ccc(-c2cc(F)c(OC)c(/C=C/C(=O)Nc3ccc([S@+]([O-])Cc4c(C)ncn4CC)cc3)c2)cc1 [WX088] | 0.328 | 6.63 | 15.7 | 150.423 | 122.101 | 3.0 |  |  |  |  |  | 3.5 | 4.3 | 3.8 | 21 |  |
